Source: ChEMBL document CHEMBL3217597, “OH radical production stimulated by (RW)4D, a synthetic antimicrobial agent and indolicidin” (Medchemcomm, 2012)
Converted amounts (≈) assume the structure as drawn. The source made the active and inactive calls. The calls are words filed in the database; no cut-off is given here. Where a SMILES comes first, the peptide text is derived from it. Side-chain parts run from the residue outwards. [ ]: non-standard residue; d: D form. The star is where a group is joined. Lys(α,ε-(ArgTrp)2) = N=C(N)NCCC[C@H](N)C(=O)N[C@@H](Cc1c[nH]c2ccccc12)C(=O)NCCCC[C@H](NC(=O)[C@H](Cc1c[nH]c2ccccc12)NC(=O)[C@@H](N)CCCNC(=N)N)C(=O)*; βAla = NCCC(=O)O

How the values were obtained:
[1] = system: Escherichia coli; assay: Induction of hydroxyl radical production in Escherichia coli at 25 to 250 ng/mL after 1 hr by measuring increase in hydroxyphenyl fluorescein emission by flow cytometry analysis; assay type: functional, organism-based
[2] = system: Escherichia coli; assay: Induction of hydroxyl radical production in deltaiscS knockout Escherichia coli at 25 to 250 ng/mL after 1 hr by measuring increase in hydroxyphenyl fluorescein emission by flow cytometry analysis; assay type: functional, organism-based
[3] = system: Escherichia coli; assay: Induction of hydroxyl radical production in Escherichia coli at 25 to 250 ng/mL after 2 hrs by measuring increase in hydroxyphenyl fluorescein emission by flow cytometry analysis; assay type: functional, organism-based
[4] = system: Escherichia coli; assay: Reduction of hydroxyl radical production in deltaicdA knockout Escherichia coli at 25 to 250 ng/ml after 1 hr by flow cytometry analysis; assay type: functional, organism-based
[5] = system: Escherichia coli; assay: Reduction of hydroxyl radical production in deltamdh knockout Escherichia coli at 25 to 250 ng/ml after 1 hr by flow cytometry analysis; assay type: functional, organism-based
[6] = system: Escherichia coli; assay: Reduction of hydroxyl radical production in deltaacnB knockout Escherichia coli at 25 to 250 ng/ml after 1 hr by flow cytometry analysis; assay type: functional, organism-based
[7] = system: Escherichia coli; assay: Induction of hydroxyl radical production in Escherichia coli at 25 to 250 ng/mL after 1 hr by measuring increase in hydroxyphenyl fluorescein emission by flow cytometry analysis in presence of thiourea; assay type: functional, organism-based
[8] = system: Escherichia coli; assay: Reduction of hydroxyl radical production in […] knockout Escherichia coli at 25 to 250 ng/ml after 1 hr by flow cytometry analysis; assay type: functional, organism-based
[9] = system: Escherichia coli; assay: Induction of hydroxyl radical production in Escherichia coli at 9 to 45 ug/mL after 2 hrs by measuring increase in hydroxyphenyl fluorescein emission by flow cytometry analysis; assay type: functional, organism-based
[10] = system: Escherichia coli; assay: Antibacterial activity against deltaicdA knockout Escherichia coli; assay type: functional, organism-based
[11] = system: Escherichia coli; assay: Induction of hydroxyl radical production in deltaiscS knockout Escherichia coli at 9 to 45 ug/mL after 1 hr by measuring increase in hydroxyphenyl fluorescein emission by flow cytometry analysis; assay type: functional, organism-based
[12] = system: Escherichia coli; assay: Antibacterial activity against deltaiscS knockout Escherichia coli; assay type: functional, organism-based
[13] = system: Escherichia coli; assay: Reduction of hydroxyl radical production in deltamdh knockout Escherichia coli at 9 to 45 ug/mL after 1 hr by flow cytometry analysis; assay type: functional, organism-based
[14] = system: Escherichia coli; assay: Ratio of IC50 for deltaacnB knockout Escherichia coli to IC50 for Escherichia coli […]; assay type: functional
[15] = system: Escherichia coli; assay: Induction of hydroxyl radical production in Escherichia coli at 9 to 45 ug/mL after 1 hr by measuring increase in hydroxyphenyl fluorescein emission by flow cytometry analysis; assay type: functional, organism-based
[16] = system: Escherichia coli; assay: Ratio of IC50 for deltaiscS knockout Escherichia coli to IC50 for Escherichia coli […]; assay type: functional
[17] = system: Escherichia coli; assay: Antibacterial activity against deltaacnB knockout Escherichia coli; assay type: functional, organism-based
[18] = system: Escherichia coli; assay: Antibacterial activity against deltamdh knockout Escherichia coli; assay type: functional, organism-based
[19] = system: Escherichia coli; assay: Reduction of hydroxyl radical production in deltaicdA knockout Escherichia coli at 9 to 45 ug/mL after 1 hr by flow cytometry analysis; assay type: functional, organism-based
[20] = system: Escherichia coli; assay: Induction of hydroxyl radical production in Escherichia coli at 9 to 45 ug/mL after 1 hr by measuring increase in hydroxyphenyl fluorescein emission by flow cytometry analysis in presence of thiourea; assay type: functional, organism-based
[21] = system: Escherichia coli; assay: Antibacterial activity against […] knockout Escherichia coli; assay type: functional, organism-based
[22] = system: Escherichia coli; assay: Reduction of hydroxyl radical production in […] knockout Escherichia coli at 9 to 45 ug/mL after 1 hr by flow cytometry analysis; assay type: functional, organism-based
[23] = system: Escherichia coli; assay: Ratio of IC50 for deltaicdA knockout Escherichia coli to IC50 for Escherichia coli […]; assay type: functional
[24] = system: Escherichia coli; assay: Reduction of hydroxyl radical production in deltaacnB knockout Escherichia coli at 9 ug/ml after 1 hr by flow cytometry analysis; assay type: functional, organism-based
[25] = system: Escherichia coli; assay: Antibacterial activity against Escherichia coli […]; assay type: functional, organism-based
[26] = system: Escherichia coli; assay: Reduction of hydroxyl radical production in deltaacnB knockout Escherichia coli at 5 to 25 ug/ml after 1 hr by flow cytometry analysis; assay type: functional, organism-based
[27] = system: Escherichia coli; assay: Induction of hydroxyl radical production in Escherichia coli at 5 to 25 ug/mL after 2 hrs by measuring increase in hydroxyphenyl fluorescein emission by flow cytometry analysis; assay type: functional, organism-based
[28] = system: Escherichia coli; assay: Induction of hydroxyl radical production in Escherichia coli at 5 to 25 ug/mL after 1 hr by measuring increase in hydroxyphenyl fluorescein emission by flow cytometry analysis in presence of thiourea; assay type: functional, organism-based
[29] = system: Escherichia coli; assay: Induction of hydroxyl radical production in deltaiscS knockout Escherichia coli at 5 to 25 ug/mL after 1 hr by measuring increase in hydroxyphenyl fluorescein emission by flow cytometry analysis; assay type: functional, organism-based
[30] = system: Escherichia coli; assay: Induction of hydroxyl radical production in Escherichia coli at 5 to 25 ug/mL after 1 hr by measuring increase in hydroxyphenyl fluorescein emission by flow cytometry analysis; assay type: functional, organism-based
[31] = system: Escherichia coli; assay: Reduction of hydroxyl radical production in […] knockout Escherichia coli at 5 to 25 ug/ml after 1 hr by flow cytometry analysis; assay type: functional, organism-based
[32] = system: Escherichia coli; assay: Reduction of hydroxyl radical production in deltaicdA knockout Escherichia coli at 5 to 25 ug/ml after 1 hr by flow cytometry analysis; assay type: functional, organism-based
[33] = system: Escherichia coli; assay: Reduction of hydroxyl radical production in deltamdh knockout Escherichia coli at 5 to 25 ug/ml after 1 hr by flow cytometry analysis; assay type: functional, organism-based
[34] = system: Escherichia coli; assay: Induction of hydroxyl radical production in deltaiscS knockout Escherichia coli at 5 to 15 ug/mL after 1 hr by measuring increase in hydroxyphenyl fluorescein emission by flow cytometry analysis; assay type: functional, organism-based
[35] = system: Escherichia coli; assay: Reduction of hydroxyl radical production in deltamdh knockout Escherichia coli at 5 to 15 ug/ml after 1 hr by flow cytometry analysis; assay type: functional, organism-based
[36] = system: Escherichia coli; assay: Induction of hydroxyl radical production in Escherichia coli at 5 to 15 ug/mL after 2 hrs by measuring increase in hydroxyphenyl fluorescein emission by flow cytometry analysis; assay type: functional, organism-based
[37] = system: Escherichia coli; assay: Induction of hydroxyl radical production in Escherichia coli at 5 to 15 ug/mL after 1 hr by measuring increase in hydroxyphenyl fluorescein emission by flow cytometry analysis in presence of thiourea; assay type: functional, organism-based
[38] = system: Escherichia coli; assay: Reduction of hydroxyl radical production in deltaacnB knockout Escherichia coli at 5 to 15 ug/ml after 1 hr by flow cytometry analysis; assay type: functional, organism-based
[39] = system: Escherichia coli; assay: Reduction of hydroxyl radical production in […] knockout Escherichia coli at 5 to 15 ug/ml after 1 hr by flow cytometry analysis; assay type: functional, organism-based
[40] = system: Escherichia coli; assay: Induction of hydroxyl radical production in Escherichia coli at 5 to 15 ug/mL after 1 hr by measuring increase in hydroxyphenyl fluorescein emission by flow cytometry analysis; assay type: functional, organism-based
[41] = system: Escherichia coli; assay: Reduction of hydroxyl radical production in deltaicdA knockout Escherichia coli at 5 to 15 ug/ml after 1 hr by flow cytometry analysis; assay type: functional, organism-based

## CCn1cc(C(=O)O)c(=O)c2cc(F)c(N3CCNCC3)cc21
[1]
  Activity: Active
[2]
  Activity: inactive
[3]
  Activity: Active
[4]
  Activity: inactive
[5]
  Activity: inactive
[6]
  Activity: Active
[7]
  Activity: inactive
[8]
  Activity: inactive

## N=C(N)NCCC[C@H](N)C(=O)N[C@@H](Cc1c[nH]c2ccccc12)C(=O)NCCCC[C@H](NC(=O)[C@H](Cc1c[nH]c2ccccc12)NC(=O)[C@@H](N)CCCNC(=N)N)C(=O)NCCCC[C@H](NC(=O)[C@H](CCCCNC(=O)[C@H](Cc1c[nH]c2ccccc12)NC(=O)[C@@H](N)CCCNC(=N)N)NC(=O)[C@H](Cc1c[nH]c2ccccc12)NC(=O)[C@@H](N)CCCNC(=N)N)C(=O)NCCC(N)=O (H-RWK([Trp-Arg])K(Lys(α,ε-(ArgTrp)2))[βAla]-NH2)
[9]
  Activity: Active
[10]
  IC50: 9.4 µg/mL (≈ 5.1 µM)
[11]
  Activity: inactive
[12]
  IC50: 9.9 µg/mL (≈ 5.37 µM)
[13]
  Activity: inactive
[14]
  Ratio IC50: 1.5
[15]
  Activity: Active
[16]
  Ratio IC50: 1.5
[17]
  IC50: 9.7 µg/mL (≈ 5.27 µM)
[18]
  IC50: 7.8 µg/mL (≈ 4.23 µM)
[19]
  Activity: inactive
[20]
  Activity: inactive
[21]
  IC50: 8.3 µg/mL (≈ 4.51 µM)
[22]
  Activity: inactive
[23]
  Ratio IC50: 1.5
[24]
  Activity: Active
[25]
  IC50: 6.5 µg/mL (≈ 3.53 µM)

## NC[C@H]1O[C@H](O[C@H]2[C@H](O)[C@@H](O[C@H]3O[C@H](CO)[C@@H](O)[C@H](N)[C@H]3O)[C@H](N)C[C@@H]2N)[C@H](O)[C@@H](O)[C@@H]1O
[26]
  Activity: Active
[27]
  Activity: Active
[28]
  Activity: inactive
[29]
  Activity: inactive
[30]
  Activity: Active
[31]
  Activity: inactive
[32]
  Activity: inactive
[33]
  Activity: inactive

## CC1(C)S[C@@H]2[C@H](NC(=O)[C@H](N)c3ccccc3)C(=O)N2[C@H]1C(=O)O
[34]
  Activity: inactive
[35]
  Activity: inactive
[36]
  Activity: Active
[37]
  Activity: inactive
[38]
  Activity: Active
[39]
  Activity: inactive
[40]
  Activity: Active
[41]
  Activity: inactive
